From ChEMBL document CHEMBL1909046, “DrugMatrix in vitro pharmacology data”

Key:
[1] = DRUGMATRIX: beta-Lactamase enzyme inhibition (substrate: Nitrocefin); design: species or system Bacillus cereus; conditions: Not Active = under 50% inhibition at 10 µM
[2] = biological target: T1, Cholecystokinin receptor type A (Homo sapiens, UniProt P32238); type: cell membranes, Membrane; conditions: 1321-n1; further: in other assays of this panel Not Active means under 50% inhibition at 10 µM
T1 sequence (P32238 whole entry): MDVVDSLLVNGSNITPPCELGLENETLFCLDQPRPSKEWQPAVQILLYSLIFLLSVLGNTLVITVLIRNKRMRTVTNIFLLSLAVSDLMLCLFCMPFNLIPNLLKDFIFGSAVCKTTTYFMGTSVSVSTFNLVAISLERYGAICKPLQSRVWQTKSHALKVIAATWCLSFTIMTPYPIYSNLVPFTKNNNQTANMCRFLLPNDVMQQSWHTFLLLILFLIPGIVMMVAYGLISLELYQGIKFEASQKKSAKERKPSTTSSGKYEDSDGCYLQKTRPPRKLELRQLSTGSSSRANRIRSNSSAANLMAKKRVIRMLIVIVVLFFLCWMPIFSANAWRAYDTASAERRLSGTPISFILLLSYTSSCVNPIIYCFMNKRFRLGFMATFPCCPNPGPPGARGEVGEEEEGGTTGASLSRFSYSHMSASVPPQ

[3] = DRUGMATRIX: GABAA, Chloride Channel, TBOB radioligand binding (ligand: [3H] TBOB); type: cell membranes, Rattus norvegicus, Wistar, Cerebral cortex, Membrane; conditions: Not Active = under 50% inhibition at 10 µM
Melanocortin receptor 3 = Melanocortin receptor 3 (Homo sapiens, UniProt P41968); type: cell membranes, Membrane; conditions: hek293; further: in other assays of this panel Not Active means under 50% inhibition at 10 µM
[4] = biological target: Delta-type opioid receptor (Homo sapiens, UniProt P41143); type: cell membranes, HEK293, Membrane; conditions: hek293; further: in other assays of this panel Not Active means under 50% inhibition at 10 µM
[5] = biological target: cGMP-specific 3',5'-cyclic phosphodiesterase (Homo sapiens, UniProt O76074); test: DRUGMATRIX: Phosphodiesterase PDE5 enzyme inhibition (substrate: [3H]cGMP + cGMP); type: tissue-based, Platelet; conditions: platelet; Not Active = under 50% inhibition at 10 µM
Progesterone receptor = biological target: T2, Progesterone receptor (Bos taurus, UniProt Q690N0); test: DRUGMATRIX: Progesterone radioligand binding (ligand: [3H] R-5020); type: tissue-based, Uterus; conditions: Not Active = under 50% inhibition at 10 µM
T2 sequence (Q690N0 whole entry): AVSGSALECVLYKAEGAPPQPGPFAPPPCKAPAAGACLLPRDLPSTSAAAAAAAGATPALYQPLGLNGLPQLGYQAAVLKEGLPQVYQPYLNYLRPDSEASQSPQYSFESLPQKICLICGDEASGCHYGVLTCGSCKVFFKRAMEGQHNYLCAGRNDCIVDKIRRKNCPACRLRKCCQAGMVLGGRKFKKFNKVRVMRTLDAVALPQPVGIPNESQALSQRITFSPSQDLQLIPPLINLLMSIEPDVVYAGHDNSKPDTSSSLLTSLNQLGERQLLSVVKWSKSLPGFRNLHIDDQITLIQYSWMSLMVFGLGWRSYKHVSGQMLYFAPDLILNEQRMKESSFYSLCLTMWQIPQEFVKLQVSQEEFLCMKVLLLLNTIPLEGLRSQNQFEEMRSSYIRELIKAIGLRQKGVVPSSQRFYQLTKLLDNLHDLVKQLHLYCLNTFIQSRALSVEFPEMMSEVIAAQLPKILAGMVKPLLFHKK

Sequence of Delta-type opioid receptor (P41143 whole entry): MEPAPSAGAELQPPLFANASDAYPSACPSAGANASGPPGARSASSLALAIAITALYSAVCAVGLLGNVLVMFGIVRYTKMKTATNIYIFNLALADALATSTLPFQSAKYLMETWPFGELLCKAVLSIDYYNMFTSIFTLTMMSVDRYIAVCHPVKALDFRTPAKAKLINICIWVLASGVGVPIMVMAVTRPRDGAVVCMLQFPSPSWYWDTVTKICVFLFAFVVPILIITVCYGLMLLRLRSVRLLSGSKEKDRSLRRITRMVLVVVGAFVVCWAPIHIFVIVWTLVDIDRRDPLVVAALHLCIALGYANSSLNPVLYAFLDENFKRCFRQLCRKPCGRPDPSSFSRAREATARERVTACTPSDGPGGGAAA
Sequence of Melanocortin receptor 3 (P41968 whole entry): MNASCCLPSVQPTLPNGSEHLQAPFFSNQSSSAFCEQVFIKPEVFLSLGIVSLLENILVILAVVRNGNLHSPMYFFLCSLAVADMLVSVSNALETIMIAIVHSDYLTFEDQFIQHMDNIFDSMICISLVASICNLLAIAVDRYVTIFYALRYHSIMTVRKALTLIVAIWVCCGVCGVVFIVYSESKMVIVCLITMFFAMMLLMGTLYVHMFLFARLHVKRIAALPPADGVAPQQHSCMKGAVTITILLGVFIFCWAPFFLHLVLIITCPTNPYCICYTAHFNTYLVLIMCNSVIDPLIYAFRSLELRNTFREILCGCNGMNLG

Row | SMILES | IC50 [1] | Ki [1] | IC50 [2] | IC50 [3] | Ki [3] | IC50 (Melanocortin receptor 3) | IC50 [4] | IC50 [5] | IC50 (Progesterone receptor) | IC50 (Progesterone receptor; read-out: IC50) [nM] | Ki (Progesterone receptor; read-out: Ki) [nM]
1 | CCC1=C(C)CN(C(=O)NCCc2ccc(S(=O)(=O)NC(=O)N[C@H]3CC[C@H](C)CC3)cc2)C1=O [GLIMEPIRIDE] | Not Active | Not Active | Not Active | Not Active | Not Active | Not Active | Not Active | Not Active | Not Active | – | –
2 | Nc1cc(-c2ccncc2)c[nH]c1=O [INAMRINONE] | Not Active | Not Active | Not Active | Not Active | Not Active | Not Active | Not Active | Not Active | Not Active | – | –
3 | CCCCC1=NC2(CCCC2)C(=O)N1Cc1ccc(-c2ccccc2-c2nnn[nH]2)cc1 [IRBESARTAN] | Not Active | Not Active | Not Active | Not Active | Not Active | Not Active | Not Active | Not Active | Not Active | – | –
4 | CN1CCC(=C2c3ccccc3CC(=O)c3sccc32)CC1 [KETOTIFEN] | Not Active | Not Active | Not Active | Not Active | Not Active | Not Active | Not Active | Not Active | Not Active | – | –
5 | N[C@@H](Cn1ccc(=O)c(O)c1)C(=O)O [L-MIMOSINE] | Not Active | Not Active | Not Active | Not Active | Not Active | Not Active | Not Active | Not Active | Not Active | – | –
6 | C[N+](C)(C)C[C@H](O)CC(=O)[O-] [LEVOCARNITINE] | Not Active | Not Active | Not Active | Not Active | Not Active | Not Active | Not Active | Not Active | Not Active | – | –
7 | C[C@H]1COc2c(N3CCN(C)CC3)c(F)cc3c(=O)c(C(=O)O)cn1c23.C[C@H]1COc2c(N3CCN(C)CC3)c(F)cc3c(=O)c(C(=O)O)cn1c23.O [LEVOFLOXACIN] | Not Active | Not Active | Not Active | Not Active | Not Active | Not Active | Not Active | Not Active | Not Active | – | –
8 | CCn1cc(C(=O)O)c(=O)c2cc(F)c(N3CCNC(C)C3)c(F)c21 (stereo not drawn) [LOMEFLOXACIN] | Not Active | Not Active | Not Active | Not Active | Not Active | Not Active | Not Active | Not Active | Not Active | – | –
9 | CN1CCCC(CN2c3ccccc3Sc3ccccc32)C1 (stereo not drawn) [MEPAZINE] | Not Active | Not Active | Not Active | Not Active | Not Active | Not Active | Not Active | Not Active | Not Active | – | –
10 | Cc1cccc(C)c1NC(=O)C1CCCCN1C (stereo not drawn) [MEPIVACAINE] | Not Active | Not Active | Not Active | Not Active | Not Active | Not Active | Not Active | Not Active | Not Active | – | –
11 | CN(C)C(=N)NC(=N)N [METFORMIN] | Not Active | Not Active | Not Active | Not Active | Not Active | Not Active | Not Active | Not Active | Not Active | – | –
12 | CC(C)(C)NCC(O)COc1cccc2c1CC(O)C(O)C2 (stereo not drawn) [NADOLOL] | Not Active | Not Active | Not Active | Not Active | Not Active | Not Active | Not Active | Not Active | Not Active | – | –
13 | C[C@]12CC[C@H]3[C@@H](CCC4=CC(=O)CC[C@@H]43)[C@@H]1CC[C@@H]2O [NANDROLONE] | Not Active | Not Active | Not Active | Not Active | Not Active | Not Active | Not Active | Not Active | – | 172 | 22.4
